Measurements: patent US20220096592A1, “PIC1 VARIANTS WITH IMPROVED SOLUBILITY AND METHODS OF USING THE SAME” (priority 2019, published 2022)
Entries after “also recorded” stand apart in the source; their conditions may differ. Where a SMILES comes first, the peptide text is derived from it. [ ]: non-standard residue; d: D form. Sar = CNCC(=O)O

Columns and labels:
MPO heme ring = target: T1, MPO heme ring (Homo sapiens, UniProt P05164); experiment: MPO heme ring oxidative degradation (absorbance 300-550 nm); type: biochemical; details: peptides at 3 mM, with H2O2, FIG. 3A-3H
T1 construct: purchased Lee BioSolutions (Maryland Heights, Mo.)
T1 sequence (P05164 279-745 limits assumed): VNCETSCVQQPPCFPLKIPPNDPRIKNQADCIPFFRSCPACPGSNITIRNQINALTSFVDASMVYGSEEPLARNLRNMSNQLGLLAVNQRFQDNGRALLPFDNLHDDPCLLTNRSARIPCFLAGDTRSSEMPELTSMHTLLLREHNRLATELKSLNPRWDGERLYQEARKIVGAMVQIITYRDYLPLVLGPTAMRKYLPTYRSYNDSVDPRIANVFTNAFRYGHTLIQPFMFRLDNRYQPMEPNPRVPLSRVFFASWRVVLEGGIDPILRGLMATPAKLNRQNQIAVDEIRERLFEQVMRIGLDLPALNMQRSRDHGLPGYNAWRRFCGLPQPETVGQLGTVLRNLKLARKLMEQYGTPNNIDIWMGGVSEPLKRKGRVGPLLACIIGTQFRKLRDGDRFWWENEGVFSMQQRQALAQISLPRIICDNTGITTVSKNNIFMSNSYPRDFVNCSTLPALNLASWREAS
T1 sequence (P05164 165-273 limits assumed): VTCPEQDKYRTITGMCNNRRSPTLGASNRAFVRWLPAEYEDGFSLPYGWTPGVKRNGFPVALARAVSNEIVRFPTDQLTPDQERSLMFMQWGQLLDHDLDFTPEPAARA
Procedure: In a 96 well plate, 0.025 ml of 1.7 mg/ml MPO was combined with 0.00125 ml of 0.5% H2O2 and 3 mM PIC1 or sarcosine variant peptides in a total volume of 0.125 ml PBS and left to incubate at room temperature for 2 minutes. Using a 96 well plate reader, the wells were scanned for absorbance from 300-550 nm to generate curves reflecting the iron state in the MPO heme ring, as previously reported.
The ability of the variants to prevent degradation of the heme ring in the MPO molecule was then evaluated. […] Degradation of the heme ring can be evaluated via spectrometric measurements of absorption of wavelengths from 300 to 550 nm.

[1] = system: classical complement pathway; details: for inhibition of classical pathway hemolysis, in words: peptides at 0.4 mM, compared with PA-dPEG24, FIG. 1B
Procedure: (§1) For hemolytic complement assays, human red blood cells (RBCs) from type AB donors were purified, washed and standardized to 1×10^9 cells/ml, as previously described. Human sera from type 0 donors at a 20% final concentration was combined with […] PIC1 or sarcosine variant peptides, and the volume was brought up to 0.15 ml with GVBS^++ and […] RBCs. For factor B-depleted sera hemolytic assays, a final of 0.005% factor B depleted sera was incubated with […] PIC1 or sarcosine variant peptides with 0.1 ml antibody-sensitized sheep red blood cells (EA) in a final volume of 0.75 ml GVBS^++. The samples were incubated for one hour at 37° C. Then, 1.0 ml of GVBS^−− was added to the factor B-depleted samples to stop the reaction. The samples were spun at 3,000 rpm for 5 minutes. The supernatant was then collected and read at 412 nm. An analysis was performed to represent the values as a percent of the positive control, which consists of human 0 sera and AB red blood cells in GVBS^++ buffer.
(§2) An evaluation of the extent to which the peptide variants inhibit antibody-initiated complement activation was performed. The peptide variants were tested in the following two hemolytic assays: (i) an ABO incompatibility ex vivo assay and (ii) a classical pathway CH50-type assay in factor B-depleted sera.
A CH50-type hemolytic assay was then performed. with antibody-sensitized sheep erythrocytes, isolating the classical pathway by utilizing factor B-depleted sera; peptides were tested at 0.4 mM.

[2] = system: purified human neutrophils; experiment: NETosis assay (immune complex activated serum and H2O2; PicoGreen free DNA, fluorescence microscopy); type: cell-based; details: peptides at 2 mM, FIG. 5A
Procedure: NETosis assays with immune complexes were performed as previously described. Briefly, normal human serum was stimulated with ovalbumin-antiovalbumin immune complexes in GVBS^++ for 30 minutes at 37° C. This mixture along with 0.05% H2O2 was then added to purified human neutrophils resuspended in RPMI with or without sarcosine variants (2 mM), allowing NETosis to occur. Quantitation of free DNA released from the neutrophils was performed using PicoGreen. Slides were stained with DAPI (Southern Biotech, Birmingham, Ala.). The following antibodies were used to visualize formation of NETs: • (i) mouse anti-elastase (Invitrogen, Carlsbad, Calif.) as a primary antibody with the secondary goat anti-mouse antibody Alexa Fluor 568 (Novus Biologicals, Centennial, Colo.) and • (ii) rabbit anti-histone H3 (Abcam, Cambridge Mass.) with goat anti-rabbit antibody Alexa Fluor 488 (Novus Biologicals). Fluorescence microscopy using an Olympus BX53 microscope was performed to visualize NETs.
The peptide variants were tested for inhibition of NETosis. In this assay, purified human neutrophils were stimulated with normal human serum activated with ovalbumin-antiovalbumin immune complexes and hydrogen peroxide. Free DNA expressed from the neutrophils was then measured in a PicoGreen assay. […] Direct visualization of neutrophil extracellular trap (NET) formation by fluorescence microscopy was used to confirm the above NETosis results with the 18 variant. Human neutrophils were purified and stimulated on glass slides then stained with DAPI to visualize DNA and probed with anti-neutrophil elastase (αNE) and anti-histone H3 (αhistone), as previously described. […] Fluorescence microscopy visualization of NETs confirmed the findings seen for quantitative measurements of free DNA.

[3] = system: antibody-initiated complement activation (ABO incompatible hemolysis); details: for complement inhibition overall, in words: both hemolytic complement inhibition assays; for inhibition of ABO incompatible hemolysis, in words: peptides at 1.8 mM, compared with PA-dPEG24, FIG. 1A
Procedure: as §1, §2
In the ABO incompatibility hemolytic assay, purified erythrocytes from a ‘type AB+’ donor were incubated with sera from a ‘type 0’ subject containing anti-A and anti-B antibodies; peptides were tested at 1.8 mM.

myeloperoxidase (MPO) = target: T2, myeloperoxidase (MPO) (Homo sapiens, UniProt P05164); experiment: MPO peroxidase activity, TMB-based assay; type: biochemical; details: for MPO inhibition, in words: dose-response and half-maximal inhibition, FIG. 2A, 2B
T2 construct: purchased Lee BioSolutions (Maryland Heights, Mo.)
T2 sequence (P05164 279-745 limits assumed): as the sequence (P05164 279-745 limits assumed) above
T2 sequence (P05164 165-273 limits assumed): as the sequence (P05164 165-273 limits assumed) above
Procedure: PIC1 and sarcosine variants were diluted to 25 mg/ml and then serially titrated in a 96 well plate at a volume of 0.02 ml. Myeloperoxidase (MPO) was diluted to 20 μg/ml and 0.02 ml was added to the titrated peptides. TMB (3,3′,5,5′-tetramethylbenzidine) (0.1 ml) was added to each well for 2 minutes, followed by 0.1 ml of 2.5 N H2SO4 for another 2 minutes, and then read on a 96 well plate reader (BioTek) at 450 nm.
In this assay, the variants were tested for MPO inhibition over a range of concentrations. Strong MPO inhibition was found for all variants with the exception of the no-cysteine variant (C9,10).

[4] = Total Antioxidant Capacity (TAC) assay; details: for total antioxidant capacity, in words: 0.03-0.25 mM, copper reducing equivalents, FIG. 4
Procedure: The TAC (Total Antioxidant Capacity) Assay (Cell Biolabs, Inc. San Diego, Calif.) was used to measure the antioxidant capacity of the sarcosine variants based on the reduction of copper (II) to copper (I). The assay was performed according to the recommended kit protocol.
Antioxidant activity was measured in copper reducing equivalents (CRE). Peptides were tested over a range of concentrations from 0.03-0.25 mM then compared to the standard.

C1q = target: T3, C1q (Homo sapiens, UniProt P02745+P02746+P02747); experiment: ELISA-type assay of peptide binding to C1q; details: binding curves and half-maximal binding, FIG. 1C, 1D
T3 construct: purchased Complement Technology (Tyler, Tex.)
T3 sequence (P02745 23-245): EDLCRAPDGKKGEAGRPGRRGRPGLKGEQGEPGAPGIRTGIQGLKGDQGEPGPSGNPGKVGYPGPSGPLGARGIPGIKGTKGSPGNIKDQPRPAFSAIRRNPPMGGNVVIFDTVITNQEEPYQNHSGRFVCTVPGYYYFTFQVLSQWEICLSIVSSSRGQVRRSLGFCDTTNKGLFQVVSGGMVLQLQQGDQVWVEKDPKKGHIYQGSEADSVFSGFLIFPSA
T3 sequence (P02746 28-253): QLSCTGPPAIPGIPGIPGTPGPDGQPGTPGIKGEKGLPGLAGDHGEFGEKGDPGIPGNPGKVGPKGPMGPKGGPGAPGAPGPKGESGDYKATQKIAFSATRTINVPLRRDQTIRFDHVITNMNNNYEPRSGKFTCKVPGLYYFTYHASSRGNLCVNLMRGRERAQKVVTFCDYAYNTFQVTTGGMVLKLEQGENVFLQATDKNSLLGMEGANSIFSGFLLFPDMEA
T3 sequence (P02747 29-245): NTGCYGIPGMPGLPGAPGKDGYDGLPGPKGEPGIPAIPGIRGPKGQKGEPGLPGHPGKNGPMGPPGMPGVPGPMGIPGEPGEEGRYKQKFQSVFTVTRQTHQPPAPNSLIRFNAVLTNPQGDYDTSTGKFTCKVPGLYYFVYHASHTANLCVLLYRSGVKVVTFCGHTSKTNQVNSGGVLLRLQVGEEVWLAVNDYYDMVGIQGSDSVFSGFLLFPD
Procedure: (§3) The plates were washed with PBST (phosphate buffered saline+0.1% Tween) and then blocked with 1% gelatin/PBS for 2 hours at room temperature. After washing, the plates were incubated with PA or sarcosine variant peptides starting at 2.5 mg/ml and then serially diluted in 1% gelatin/PBS for 1 hour at room temperature. After washing, the plates were probed with rabbit anti-PA (developed with Cocalico Biologicals, Reamstown, Pa.) at 1:1000 in 1% gelatin/PBS for 1 hour, room temperature, followed by a goat anti-rabbit HRP (Sigma Aldrich, St Louis, Mo.) at 1:1,000 in 1% gelatin/PBS for 1 hour at room temperature with a washing step in between. Wells were developed using TMB substrate solution, stopped using 1 N H2SO4, and read at 450 nm in a plate reader.
Higher concentrations of DMSO interfere with the detecting reagents resulting in a partial binding curve.

MPO = target: T4, MPO (Homo sapiens, UniProt P05164); experiment: plate-based assay of binding to solid phased MPO; details: binding curves and half-maximal binding, FIG. 2C, 2D
T4 construct: purchased Lee BioSolutions (Maryland Heights, Mo.)
T4 sequence (P05164 279-745 limits assumed): as the sequence (P05164 279-745 limits assumed) above
T4 sequence (P05164 165-273 limits assumed): as the sequence (P05164 165-273 limits assumed) above
Procedure: as §3
A plate-based assay was performed to test the binding of the peptide variants to solid phased MPO. MPO binding was identified for all variants, except for C9,10.

purified C1q = purified C1q (UniProt P02745); experiment: cell-based or functional assay
Sequence of purified C1q (P02745 23-245 limits assumed, chain 1 of 3): as the sequence (P02745 23-245) above
Sequence of purified C1q (P02746 28-253 limits assumed, chain 2 of 3, further chain): as the sequence (P02746 28-253) above
Sequence of purified C1q (P02747 29-245 limits assumed, chain 3 of 3, further chain): as the sequence (P02747 29-245) above

[5] = summary grade of Table 4, key not given

Compound	inhibition of heme ring degradation, in words (MPO heme ring)	inhibition of classical pathway hemolysis, in words [1]	Classical C’ inhibition [1, 5]	inhibition of NETosis (free DNA, PicoGreen), in words [2]	complement inhibition overall, in words [3]	inhibition of ABO incompatible hemolysis, in words [3]	ABO C’ inhibition [3, 5]	MPO inhibition, in words (myeloperoxidase (MPO))	MPO inhibition (myeloperoxidase (MPO); [5])	total antioxidant capacity, in words [4]	Total Antioxidant Cap [4, 5]	binding to C1q, in words (C1q; listed as 18)	binding to MPO, in words (MPO)	binding to C1q, in words (C1q)	inhibition of classical pathway hemolysis in factor B-depleted sera, more than PA-dPEG24 (peptides at 0.4 mM) (purified C1q)
CC[C@H](C)[C@H](N)C(=O)N[C@@H](C)C(=O)N[C@@H](CC(C)C)C(=O)N[C@H](C(=O)N[C@@H](CC(C)C)C(=O)N[C@@H](CCC(=O)O)C(=O)N1CCC[C@H]1C(=O)N[C@H](C(=O)N(C)CC(=O)N[C@@H](CCC(N)=O)C(=O)N[C@@H](CCC(=O)O)C(=O)N[C@@H](CCCNC(=N)N)C(=O)N[C@@H](C)C(=O)N[C@@H](C)C(=O)O)[C@@H](C)CC)[C@@H](C)CC [C9, 10] (H-IALILEPI[Sar]QERAA-OH)	showed inhibition of heme ring degradation	minimal activity	0	only slight inhibition relative to the negative control	most, but not all, complement inhibition was lost	minimal inhibition of ABO hemolysis	0	does not possess	0	no antioxidant capacity	0				
CC[C@H](C)[C@H](N)C(=O)N[C@@H](C)C(=O)N[C@@H](CC(C)C)C(=O)N[C@H](C(=O)N[C@@H](CC(C)C)C(=O)N[C@@H](CCC(=O)O)C(=O)N1CCC[C@H]1C(=O)N(C)CC(=O)N[C@@H](CS)C(=O)N[C@@H](CS)C(=O)N[C@@H](CCC(N)=O)C(=O)N[C@@H](CCC(=O)O)C(=O)N[C@@H](CCCNC(=N)N)C(=O)N[C@@H](C)C(=O)N[C@@H](C)C(=O)O)[C@@H](C)CC [I8, H2N-IALILEP(Sar)CCQERAA-OH] (H-IALILEP[Sar]CCQERAA-OH)	near perfect preservation of the heme ring absorption spectrum	superior activity			superior inhibition of antibody-initiated complement activation and hemolysis compared with PA and other peptide variants	inhibited ABO incompatible hemolysis to a greater extent than did the PA-dPEG24		greatest potency among the different variants		antioxidant capacity approaching that of PA-dPEG24		superior binding to C1q as compared with the other peptides; also recorded: slightly superior to that of PA-dPEG24	superior binding to MPO, as compared with the other sarcosine variants		
CC[C@H](C)[C@H](N)C(=O)N[C@@H](C)C(=O)N[C@@H](CC(C)C)C(=O)N[C@H](C(=O)N[C@@H](CC(C)C)C(=O)N[C@@H](CCC(=O)O)C(=O)N1CCC[C@H]1C(=O)N[C@H](C(=O)N[C@@H](CS)C(=O)N[C@@H](CS)C(=O)N[C@@H](CCC(N)=O)C(=O)N[C@@H](CCC(=O)O)C(=O)N[C@@H](CCCNC(=N)N)C(=O)N[C@@H](C)C(=O)N[C@@H](C)C(=O)O)[C@@H](C)CC)[C@@H](C)CC [PA]													near complete overlay of the 18 and PA curves	superior binding to C1q as compared with the other peptides	
PA-I8Sar (H2N-IALILEP(Sar)CCQERAA-OH) (peptide)															75%
